68 compounds from patent US10752612B2, “PLK4 inhibitors” (LUDWIG INSTITUTE FOR CANCER RESEARCH LTD, priority 2015, dated 2020) can be followed below.

The target in the assay is T1, human Plk4 kinase domain (aa 2-275) (Homo sapiens, UniProt O00444).
T1 construct: purified 6×His-tagged human Plk4 kinase domain (aa 2-275); 6xHis; made in house; host or cells: E. coli
T1 sequence (O00444 2-275): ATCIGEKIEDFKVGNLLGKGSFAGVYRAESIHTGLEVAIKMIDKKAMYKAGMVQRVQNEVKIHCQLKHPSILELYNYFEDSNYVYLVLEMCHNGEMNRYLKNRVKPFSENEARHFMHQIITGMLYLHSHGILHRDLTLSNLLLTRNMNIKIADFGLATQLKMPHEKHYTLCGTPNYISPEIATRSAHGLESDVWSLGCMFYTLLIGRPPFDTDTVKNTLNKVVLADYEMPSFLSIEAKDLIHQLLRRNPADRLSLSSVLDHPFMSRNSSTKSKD
Nature of the assay: Plk4 kinase assay (ADP-Glo). The class given is biochemical. The note with it: Table 1. Summed up:
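Enzyme at 2.5-10 nM final, pH 8.0, reacted 4-16 hours at 25° C; ADP generation read by ADP-Glo luminescence. Ki derived from IC50 by Cheng-Prusoff or, for tight binders, Copeland formalism.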
For orientation: ADP-Glo turns the ADP formed in a reaction into a luminescent signal.

Structures are written as SMILES.

The compound `COc1c(Nc2cc(C)[nH]n2)nc(Sc2ccc(S(=O)(=O)Cc3ccccc3)cc2)nc1N1CCN(C2CCNCC2)CC1` showed an IC50 of less than 1 µM.
Turning to `COc1c(Nc2cc(C)[nH]n2)nc(Sc2ccc(S(=O)(=O)Cc3ccccc3)cc2)nc1N1CCN(CCN2C(C)CCCC2C)CC1` (centres unmarked), the IC50 is less than 1 µM.
To `Cc1cc(Nc2nc(Sc3ccc(N)cc3)nc(N3CCC(O)CC3)c2C)n[nH]1` belongs less than 1 µM; to `CNCCN1CCN(c2nc(Sc3ccc(NC(C)=O)cc3)nc(Nc3cc(C)[nH]n3)c2OC)CC1`, less than 1 µM.
`COc1c(CS(=O)(=O)c2ccc(Sc3nc(Nc4cc(C)[nH]n4)c(OC)c(N4CCN(CCN(C)C)CC4)n3)cc2)cccc1[N+](=O)[O-]` registered an IC50 of less than 1 µM.
In the case of `COc1c(Nc2ncc(C)s2)nc(Sc2ccc(S(C)(=O)=O)cc2)nc1N1CCN(CCN(C)C)CC1` it was less than 1 µM; in that of `COc1c(Nc2cc(C)[nH]n2)nc(Sc2ccc(NC(C)=O)cc2)nc1N1CCCCCC1`, 0.1 to 1 µM; in that of `COc1c(Nc2cc(C)[nH]n2)nc(Sc2ccc(S(=O)(=O)COCc3ccccc3)cc2)nc1N1CCN(CCN(C)C)CC1`, less than 1 µM.
`CC(=O)Nc1ccc(Sc2nc(Nc3cc(C)[nH]n3)c(C)c(N3CCN(C(=O)CCN(C)C)CC3)n2)cc1` had an IC50 of less than 1 µM.
On to `COc1c(Nc2cc(C)[nH]n2)nc(Sc2ccc(S(=O)(=O)Cc3cccc([N+](=O)[O-])c3F)cc2F)nc1N1CCCC[C@@H]1CO`, for which the IC50 is less than 1 µM.
Compound `CCOc1c(Nc2cc(C)[nH]n2)nc(Sc2ccc(NC(=O)C3CCCC3)cc2)nc1N1CCN(CCN(C)C)CC1` yielded a concentration for half-maximal inhibition (IC50) of 0.1 to 1 µM.
As for `COc1c(Nc2cc(C)[nH]n2)nc(Sc2ccc(S(=O)(=O)Cc3cccc(Cl)c3F)cc2F)nc1N1CCOCC1`, the half-maximal inhibitory concentration (IC50) was less than 1 µM.
In the case of `CNC(=O)Nc1ccc(Sc2nc(Nc3cc(C)[nH]n3)c(OC)c(N3CCN(CCN(C)C)CC3)n2)cc1`, the IC50 is less than 1 µM.
In the case of `Cc1cc(Nc2nc(Sc3ccc(NC(=O)C4CC4)cc3)nc(NCCN(C)C)c2C)n[nH]1` it was less than 1 µM; in that of `COc1c(Nc2cc(C)[nH]n2)nc(Sc2ccc(/C=C/c3cccc([N+](=O)[O-])c3F)cc2F)nc1N1CCOCC1`, less than 1 µM.
Turning to `COc1c(Nc2cc(C)[nH]n2)nc(Sc2ccc(S(=O)(=O)Cc3ccccc3)cc2)nc1N1CCC(N2CCN(C)CC2)CC1`, the IC50 is less than 1 µM.
In turn, `CCOc1c(Nc2cc(C)[nH]n2)nc(Sc2ccc(NC(=O)C3CC3)cc2)nc1N(CC)CC` [drawing 127] yielded a 50% inhibitory concentration (IC50) of 0.1 to 1 µM.
`COc1c(Nc2cc(C)[nH]n2)nc(Sc2ccc(S(=O)(=O)Cc3ccccc3)cc2)nc1N1CCN(CCN2C3CCCC2CC3)CC1` gave an IC50 of less than 1 µM.
In turn, `CCOc1c(Nc2cc(C)[nH]n2)nc(Sc2ccc(NC(C)=O)cc2)nc1N(C)C` yielded an IC50 of 0.1 to 1 µM.
The compound `COc1c(Nc2cc(C)[nH]n2)nc(Sc2ccc(S(=O)(=O)C(C)(C)c3cccc(Cl)c3F)cc2F)nc1N1CCOCC1` showed an IC50 of less than 1 µM.
`COc1c(Nc2cc(C)[nH]n2)nc(Sc2ccc(S(=O)(=O)C(C)(C)c3cccc([N+](=O)[O-])c3F)cc2F)nc1N1CCN(CCNC(=O)C(F)(F)F)CC1` showed an IC50 of less than 1 µM.
The compound `CC(=O)Nc1ccc(Sc2nc(Nc3cc(C)[nH]n3)c(C)c(N3CCC(F)(F)CC3)n2)cc1` yielded an IC50 of less than 1 µM.
For `CCS(=O)(=O)c1ccc(Sc2nc(Nc3cc(C)[nH]n3)c(OC)c(N3CCOCC3)n2)c(Cl)c1`, the IC50 is less than 1 µM.
Compound `Cc1cc(Nc2nc(Sc3ccc(NC(=O)C4CCCC4)cc3)nc(N3CCOCC3)c2C)n[nH]1` had a concentration for half-maximal inhibition (IC50) of less than 1 µM.
For the compound `COCC(=O)N1CCN(c2nc(Sc3ccc(NC(C)=O)cc3)nc(Nc3cc(C)[nH]n3)c2C)CC1`, the IC50 is less than 1 µM.
The compound `CCOc1c(Nc2cc(C)[nH]n2)nc(Sc2ccc(NC(=O)C3CCCC3)cc2)nc1N1CCNCC1` gave an IC50 of 0.1 to 1 µM.
In turn, `CCOc1c(Nc2cc(C)[nH]n2)nc(Sc2ccc(NC(=O)C3CC3)cc2)nc1N1CCN(C(=O)CN(C)C)CC1` came in with an IC50 of 0.1 to 1 µM.
In the case of `CCC1CCc2nc(Sc3ccc(NC(=O)C4CC4)cc3)nc(Nc3cc(C)[nH]n3)c21` (centres unmarked) it was less than 1 µM; in that of `COc1c(Nc2cc(C)[nH]n2)nc(Sc2ccc(NC(C)=O)cc2)nc1N1CCC(OCCN(C)C)CC1`, 0.1 to 1 µM; in that of `COc1c(Nc2cc(C)[nH]n2)nc(Sc2ccc(NC(C)=O)cc2)nc1N1CCC(CC(N)=O)CC1`, less than 1 µM.
Consider `COc1c(Nc2cc(C)[nH]n2)nc(Sc2ccc(S(=O)(=O)C(C)(C)c3c(F)c(F)c(F)c(F)c3F)cc2F)nc1N1CCC(N(C)C)CC1`, for which the IC50 was less than 1 µM.
To `CCOc1c(Nc2cc(C)[nH]n2)nc(Sc2ccc(NC(=O)C3CC3)cc2)nc1N1CCN(C2CCNCC2)CC1` belongs 0.1 to 1 µM; to `COc1c(Nc2cc(C)[nH]n2)nc(Sc2ccc(S(=O)(=O)Cc3cccc([N+](=O)[O-])c3Cl)cc2)nc1N1CCN(CCN(C)C)CC1`, less than 1 µM.
Turning to `COc1c(Nc2cc(C)[nH]n2)nc(Sc2ccc(CCc3cccc([N+](=O)[O-])c3F)cc2F)nc1N1CCOCC1`, the IC50 was less than 1 µM.
Take `CCOc1c(Nc2cc(C)[nH]n2)nc(SC)nc1N1CCC(O)CC1`: the concentration for half-maximal inhibition (IC50) lay in the range of 0.1 to 1 µM.
`COc1c(Nc2cc(C)[nH]n2)nc(Sc2ccc(S(=O)(=O)CC(C)C)cc2)nc1N1CCN(CCN(C)C)CC1` displayed an IC50 of less than 1 µM.
`CC(=O)Nc1ccc(Sc2nc(Nc3cc(C)[nH]n3)c(C)c(N3CC=C(F)CC3)n2)cc1` returned an IC50 of less than 1 µM.
With `COc1c(Nc2cc(C)[nH]n2)nc(Sc2ccc(NS(C)(=O)=O)cc2)nc1N1CCN(CCN(C)C)CC1`, the 50% inhibitory concentration (IC50) was less than 1 µM.
Compound `COc1c(Nc2cc(C)[nH]n2)nc(Sc2ccc(S(=O)(=O)Cc3cccc([N+](=O)[O-])c3)cc2)nc1N1CCOC[C@H]1C` registered an IC50 of less than 1 µM.
To `COc1c(Nc2cc(C)[nH]n2)nc(Sc2ccc(NC(C)=O)cc2)nc1N1CCNCC1` belongs less than 1 µM; to `COc1c(Nc2cc(C)[nH]n2)nc(Sc2ccc(S(=O)(=O)Cc3cccc(NC(C)=O)c3)cc2)nc1N1CCN(CCN(C)C)CC1`, less than 1 µM.
`COc1c(Nc2cc(C)[nH]n2)nc(Sc2ccc(S(=O)(=O)C(C)(C)c3cccc([N+](=O)[O-])c3F)cc2F)nc1N1CCC(CC(=O)N(C)C)CC1` came in with an IC50 of less than 1 µM.
For the compound `CC(=O)Nc1ccc(Sc2nc(Nc3cc(C)[nH]n3)cc(N3CCCCC3)n2)cc1`, the IC50 was less than 1 µM.
As for `CCS(=O)(=O)c1ccc(Sc2nc(Nc3cc(C)[nH]n3)c(OC)c(N3CCC(CCN(C)C)CC3)n2)cc1`, the IC50 was less than 1 µM.
In the case of `COCC(=O)N1CCN(c2nc(Sc3ccc(NC(=O)C4CCCC4)cc3)nc(Nc3cc(C)[nH]n3)c2C)CC1`, the concentration for half-maximal inhibition (IC50) is less than 1 µM.
To `Cc1cc(Nc2nc(Sc3ccc(NC(=O)C4CC4)cc3)nc(N3CCN(C(C)C)CC3)c2C)n[nH]1` belongs less than 1 µM; to `COc1c(Nc2cc(C)[nH]n2)nc(Sc2ccc(NC(=O)C3CC3)cc2)nc1NC1CCN(C)CC1`, 0.1 to 1 µM.
In turn, `COc1c(Nc2cc(C)[nH]n2)nc(Sc2ccc(S(=O)(=O)Cc3cccc([N+](=O)[O-])c3)cc2)nc1N1C2CCC1COC2` displayed a half-maximal inhibitory concentration (IC50) of less than 1 µM.
The compound `CC(=O)Nc1ccc(Sc2nc(Nc3cc(C)[nH]n3)c(C)c(N3CCC(C)CC3)n2)cc1` registered an IC50 of less than 1 µM.
The compound `COc1c(Nc2cc(C)[nH]n2)nc(Sc2ccc(NC(=O)C3CC3)cc2)nc1N1CCN(C(=O)CN(C)C)CC1` gave an IC50 of less than 1 µM.
In the case of `COc1c(Nc2cc(C)[nH]n2)nc(Sc2ccc(NC(C)=O)cc2)nc1N1CCC(N)CC1` it was less than 1 µM.
Compound `COc1c(Nc2cc(C)[nH]n2)nc(Sc2ccc(NC(C)=O)cc2)nc1N1CCC(O)CC1` displayed an IC50 of less than 1 µM.
For the compound `COc1c(Nc2cc(C)[nH]n2)nc(Sc2ccc(S(=O)(=O)Cc3c(F)c(F)cc(Cl)c3F)cc2F)nc1N1CCN(CCN(C)C)CC1`, the half-inhibitory concentration (IC50) was less than 1 µM.
`CCOc1c(Nc2cc(C)[nH]n2)nc(Sc2ccc(NC(=O)C3CCCC3)cc2)nc1N1CCN(CCOC)CC1`: the IC50 was 0.1 to 1 µM.
For `CCc1c(Nc2cc(C)[nH]n2)nc(Sc2ccc(NC(=O)C3CC3)cc2)nc1N1CCN(C)CC1`, the IC50 is greater than 1 µM.
The compound `COc1c(Nc2cc(C)[nH]n2)nc(Sc2ccc(NC(C)=O)cc2)nc1N1CCN(CC(=O)N2CCOCC2)CC1` gave an IC50 of less than 1 µM.
With `COc1c(Nc2cc(C)[nH]n2)nc(Sc2ccc(NC(=O)C3CC3)cc2)nc1N1CCN(C)CC1`, the IC50 is less than 1 µM.
Compound `COC(=O)Cc1cc(Nc2nc(SC)nc(N3CCN(CCN(C)C)CC3)c2OC)n[nH]1` returned a half-inhibitory concentration (IC50) greater than 1 µM.
`COc1c(Nc2cc(C)[nH]n2)nc(Sc2ccc(NC(C)=O)cc2)nc1N1CCC(F)CC1` had an IC50 of less than 1 µM.
Consider `COc1c(Nc2cc(C)[nH]n2)nc(Sc2ccc(S(=O)(=O)Cc3cccc(C(C)=O)c3)cc2)nc1N1CCN(CCN(C)C)CC1`, for which the half-maximal inhibitory concentration (IC50) was less than 1 µM.
In turn, `COc1c(Nc2cc(C)[nH]n2)nc(Sc2ccc(NC(C)=O)cc2)nc1N1CCOC[C@H]1C` displayed an IC50 of less than 1 µM.
The compound `CSc1nc(Nc2cc(C)[nH]n2)c(C)c(N2CCC(O)CC2)n1` had an IC50 of less than 1 µM.
In turn, `COc1c(Nc2cc(C)[nH]n2)nc(Sc2ccc(S(=O)(=O)Cc3cccc(F)c3F)cc2F)nc1N1CCN(CCN(C)C)CC1` came in with an IC50 of less than 1 µM.
In the case of `CCN(C)c1nc(Sc2ccc(NC(=O)C3CCCC3)cc2)nc(Nc2cc(C)[nH]n2)c1OC` it was 0.1 to 1 µM; in that of `Cc1cc(Nc2nc(Sc3ccccc3)nc(N3CCCCC3)c2C)n[nH]1`, less than 1 µM; in that of `CCOc1c(Nc2cc(C)[nH]n2)nc(Sc2ccc(NC(=O)C3CCCC3)cc2)nc1N(C)C`, 0.1 to 1 µM.
`COc1c(Nc2cc(C)[nH]n2)nc(Sc2ccc(S(=O)(=O)C(F)c3cccc([N+](=O)[O-])c3F)cc2F)nc1N1CCOCC1` (centres unmarked) registered an IC50 of less than 1 µM.
`CCOc1c(Nc2cc(C)[nH]n2)nc(Sc2ccc(NC(=O)C3CC3)cc2)nc1N1CCN(CCN(C)C)CC1` returned an IC50 of 0.1 to 1 µM.

In general, IC50 refers to the concentration at which inhibition is half-maximal. A lower IC50 goes with greater potency.
